Data taken from ChEMBL document CHEMBL1201862, “PubChem BioAssay data set” (2004).
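Compound exposure: 48 hours, 5 concentrations, 96-well plates. GI50 marks 50% less growth.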 The source made the active and inactive calls. No stated cut-off is given here; in the data, active = GI50 up to about 1.1 µM and inactive = higher.

Assays:
Experiment in all cases: NCI-60 cell line screen, 48 h
SK-MEL-2 = test system: SK-MEL-2
SK-MEL-5 = test system: SK-MEL-5
IGROV-1 = test system: IGROV-1
PC-3 = test system: PC-3
K562 = test system: K562
OVCAR-3 = test system: OVCAR-3
SK-MEL-28 = test system: SK-MEL-28
Malme-3M = test system: Malme-3M
NCI-H460 = test system: NCI-H460
T47D = test system: T47D
BT-549 = test system: BT-549
HCC 2998 = test system: HCC 2998
A549 = test system: A549
UACC-257 = test system: UACC-257
SF-295 = test system: SF-295
DU-145 = test system: DU-145
EKVX = test system: EKVX
HL-60 = test system: HL-60

Structure (SMILES)	GI50 (SK-MEL-2)	GI50 (SK-MEL-5)	GI50 (IGROV-1)	GI50 (PC-3)	GI50 (K562)	GI50 (OVCAR-3)	GI50 (SK-MEL-28)	GI50 (Malme-3M)	GI50 (NCI-H460)	GI50 (T47D)	GI50 (BT-549)	GI50 (HCC 2998)	GI50 (A549)	GI50 (UACC-257)	GI50 (SF-295)	GI50 (DU-145)	GI50 (EKVX)	GI50 (HL-60)
COc1ccc(Nc2nc3ccc(C(F)(F)F)cc3nc2C(=O)O)cc1	43.9 µM (inactive)	26.5 µM (inactive)	17.1 µM (inactive)	29.6 µM (inactive)	29.9 µM (inactive)	19.9 µM (inactive)	30.6 µM (inactive)	36.6 µM (inactive)	26 µM (inactive)	33.4 µM (inactive)	2.71 µM (inactive)	24 µM (inactive)	29.4 µM (inactive)	32.6 µM (inactive)	23.6 µM (inactive)	49.1 µM (inactive)	31.5 µM (inactive)	–
CCOC(=O)c1cn2c(n1)sc1c(Cl)c(Cl)ccc12	27.4 µM (inactive)	6.7 µM (inactive)	13.8 µM (inactive)	18.3 µM (inactive)	3.96 µM (inactive)	11.1 µM (inactive)	20.8 µM (inactive)	1.96 µM (inactive)	> 60.1 µM (inactive)	0.91 µM (active)	33 µM (inactive)	30.7 µM (inactive)	15.1 µM (inactive)	28.2 µM (inactive)	22.9 µM (inactive)	18.1 µM (inactive)	31 µM (inactive)	–
COC(=O)C1=C(C(=O)OC)c2cc(OC)ccc2C(C(=S)N(C)C)S1 (centres undefined)	> 100 µM (inactive)	–	> 100 µM (inactive)	> 100 µM (inactive)	> 100 µM (inactive)	> 100 µM (inactive)	> 100 µM (inactive)	> 100 µM (inactive)	> 100 µM (inactive)	> 100 µM (inactive)	19.2 µM (inactive)	> 100 µM (inactive)	> 100 µM (inactive)	> 100 µM (inactive)	> 100 µM (inactive)	> 100 µM (inactive)	> 100 µM (inactive)	–
Nc1ccccc1/N=N/c1c(S(=O)(=O)O)cc2cc(S(=O)(=O)O)cc(O)c2c1O	–	> 100 µM (inactive)	> 100 µM (inactive)	> 100 µM (inactive)	> 100 µM (inactive)	> 100 µM (inactive)	> 100 µM (inactive)	> 100 µM (inactive)	–	> 100 µM (inactive)	> 100 µM (inactive)	> 100 µM (inactive)	> 100 µM (inactive)	> 100 µM (inactive)	> 100 µM (inactive)	> 100 µM (inactive)	> 100 µM (inactive)	–
N#Cc1ccc(/N=N/N2CCCC2)cc1	> 100 µM (inactive)	86.3 µM (inactive)	> 100 µM (inactive)	83.8 µM (inactive)	91 µM (inactive)	> 100 µM (inactive)	–	–	> 100 µM (inactive)	> 100 µM (inactive)	> 100 µM (inactive)	> 100 µM (inactive)	–	> 100 µM (inactive)	> 100 µM (inactive)	20.8 µM (inactive)	63.8 µM (inactive)	91.2 µM (inactive)
Cc1cc(C)cc(Nc2cc(O)nc(O)n2)c1	–	> 100 µM (inactive)	> 100 µM (inactive)	> 100 µM (inactive)	> 100 µM (inactive)	> 100 µM (inactive)	> 100 µM (inactive)	> 100 µM (inactive)	> 100 µM (inactive)	0.0649 µM (active)	> 100 µM (inactive)	> 100 µM (inactive)	> 100 µM (inactive)	> 100 µM (inactive)	> 100 µM (inactive)	> 100 µM (inactive)	> 100 µM (inactive)	> 100 µM (inactive)
CC(CC=O)Nc1nn2c(=O)c3ccccc3nc2s1 (centres undefined)	> 100 µM (inactive)	> 100 µM (inactive)	> 100 µM (inactive)	> 100 µM (inactive)	> 100 µM (inactive)	> 100 µM (inactive)	> 100 µM (inactive)	> 100 µM (inactive)	> 100 µM (inactive)	> 100 µM (inactive)	> 100 µM (inactive)	> 100 µM (inactive)	> 100 µM (inactive)	> 100 µM (inactive)	> 100 µM (inactive)	> 100 µM (inactive)	> 100 µM (inactive)	–
